Test: Beaker Perhydrolysis Test (Sotax Dissolution Tester) of model detergent formulation containing the precursor material
Type: physicochemical
Conditions: for peroxyacid yield: percent of the theoretically available weight of peracid
Method: For the purpose of the present invention, unrestrained dissolution conditions are defined as those existing in the Beaker Perhydrolysis Test as carried out using a Sotax Dissolution Tester Model AT6 supplied by Sotax AG CH-4008 BASEL Switzerland. This Apparatus comprises an array of polycarbonate beakers, each capable of holding 1 litre of water, supported in a thermostatically controlled water bath. Each beaker is provided with a paddle stirrer whose speed can be controlled.
Add 5ml potassium iodide solution to the first titration beaker. • 7- Take a 10ml aliquot from Sotax beaker No. 1 and discharge into the first titration beaker at t=1 minute. • 8- Add the second sample to Sotax beaker No.2 at t= 1 minute and add 5 ml potassium iodide to a second titration beaker. • 9- Titrate the first aliquot against 0.005 M sodium thiosulphate solution until the solution is first decolourised (The colour is slowly regenerated as the solution warms and the perhydrate reacts with the iodide). • 10- Take a 10 ml aliquot from Sotax beaker No.2 at t= 2 minutes and discharge into the second titration beaker and repeat step . • 11- Take further aliquots at the following times (t= minutes)
The aliquots from Beaker No. 1 at 1 minute and from Beaker No. 2 at 2 minutes constitutes replicates and the results are averaged to give a figure from which the % perhydrolysis is calculated.
Material from each example was then incorporated into a model detergent formulation having the composition in % by weight.
The four formulations were then subjected to a Beaker Perhydrolysis Test as hereinbefore described and gave the peroxyacid yields shown in Table 1. Results are given for 1, 3, 5 & 10 minutes elapsed time and are expressed in percent of the theoretically available weight of peracid.

peroxyacid yield (3 minutes from start of perhydrolysis, Temperature = 30°C, hard water (25° Clarck)) [%] | peroxyacid yield (5 minutes from start of perhydrolysis, Temperature = 30°C, hard water (25° Clarck)) [%] | peroxyacid yield (10 minutes from start of perhydrolysis, Temperature = 30°C, hard water (25° Clarck)) [%] | perhydrolysis rate (effect of agglomeration with citric acid versus raw material form, 40°C) | peroxyacid yield (1 minute from start of perhydrolysis, Temperature = 40°C, water 12° Clark) [%] | peroxyacid yield (3 minutes from start of perhydrolysis, Temperature = 40°C, water 12° Clark) [%] | peroxyacid yield (5 minutes from start of perhydrolysis, Temperature = 40°C, water 12° Clark) [%] | peroxyacid yield (10 minutes from start of perhydrolysis, Temperature = 40°C, water 12° Clark) [%] | Molecule
25 | 31 | 34 | – | – | – | – | – | CCCCCCCCCC(=O)NCCCCCC(=O)Oc1ccc(S(=O)(=O)O)cc1 [C10 oxybenzenesulfonate (raw material), (6-decanamido-caproyl) oxybenzenesulfonate]
– | – | – | No such enhancement | 14 | 37 | 52 | 71 | benzoyl caprolactam [3 (benzoyl caprolactam)]
